Laboratory results: PubChem BioAssay (NCI)
Several values for one entry are separate records, joined by “and”; a condition that tells them apart may be missing. Equal values may be shown once.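 Grown in 96-well plates, cells were treated for 48 hours with each compound at five concentrations. Insufficient inhibition: endpoint recorded as highest concentration tested. GI50 = concentration required for 50% inhibition of growth. TGI: total growth inhibition.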

Assays:
Experiment in all cases: NCI-60 cell line screen, 48 h
MOLT-4 leukemia = test system: MOLT-4 leukemia
OVCAR-5 ovarian = test system: OVCAR-5 ovarian
A498 renal = test system: A498 renal
SN12C renal = test system: SN12C renal
ACHN renal = test system: ACHN renal
SW-620 colon = test system: SW-620 colon
HT29 colon = test system: HT29 colon
SK-MEL-5 melanoma = test system: SK-MEL-5 melanoma
COLO 205 colon = test system: COLO 205 colon
RXF 393 renal = test system: RXF 393 renal

Row | Compound | GI50 (MOLT-4 leukemia) [µM] | TGI (MOLT-4 leukemia) [µM] | GI50 (OVCAR-5 ovarian) [µM] | TGI (OVCAR-5 ovarian) [µM] | GI50 (A498 renal) | TGI (A498 renal) [µM] | GI50 (SN12C renal) [µM] | TGI (SN12C renal) [µM] | GI50 (ACHN renal) | TGI (ACHN renal) [µM] | GI50 (SW-620 colon) [µM] | TGI (SW-620 colon) [µM] | GI50 (HT29 colon) [µM] | TGI (HT29 colon) [µM] | GI50 (SK-MEL-5 melanoma) | TGI (SK-MEL-5 melanoma) | GI50 (COLO 205 colon) [µM] | TGI (COLO 205 colon) [µM] | GI50 (RXF 393 renal) [µM] | TGI (RXF 393 renal)
1 | O=C(Cc1ccccc1)NC(c1ccc(Cl)cc1)c1c(O)ccc2ccccc12 (stereo not drawn) | 3.51 | 20.3 | 3.16 | 10.2 | 0.985 µM | 7.72 | 2.99 | 11.5 | 2.55 µM | 6.9 | 3.22 | 13.4 | 3.74 | 11.3 | 1.73 µM | 3.2 µM | 1.98 | 3.48 | 2.17 | 8.03 µM
2 | N#CCCSC(=S)C1CCCC1=N (stereo not drawn) | – | > 100 | – | > 100 | – | > 100 | – | > 100 | – | > 100 | – | > 100 | – | > 100 | – | > 100 µM | – | > 100 | – | > 100 µM
3 | CCOC(=O)c1c(Cl)c2c(n1Cc1cccc(OC)c1)-c1oncc1CC2 | 3.48 | > 100 | 10.1 | > 100 | 0.382 µM | 5.69 | 6.04 | > 100 | 4.54 µM | > 100 | 0.773 | > 100 | 0.799 | 15.1 | 1.24 µM | 10.5 µM | 1.62 | 11.3 | 2.87 | 40.4 µM
4 | COC(=O)CS(=O)c1ccccc1 (stereo not drawn) | – | 41.4 | – | > 100 | – | > 100 | – | 40.4 | – | > 100 | – | > 100 | – | > 100 | – | > 100 µM | – | > 100 | – | 49.2 µM
5 | O=C(O)c1ccccc1-c1ccccc1C(=O)Nc1ccc2c(c1)[nH]c(=O)c1ccccc12 | – | > 100 | – | > 100 | – | > 100 | – | > 100 | – | > 100 | – | > 100 | – | > 100 | – | > 100 µM | – | > 100 | – | > 100 µM
6 | COc1ccc(-c2nn(-c3cccc(NC(=O)c4cccc(C(F)(F)F)c4)c3)cc2-c2ccncc2)cc1Cl | 2.62 | > 100 | 12.2 | > 100 | 1.03 µM | 4.68 | 5.06 | > 100 | 4.4 µM | > 100 | 4.07 | > 100 | 2.92 | 27.7 | 1.06 µM | 4.4 µM | 1.77 | 3.53 | 1.46 | 7.78 µM
7 | O=C(O)CP(=O)(O)O | – | > 100 | – | > 100 | – | > 100 | – | > 100 | – | > 100 | – | > 100 | – | > 100 | – | > 100 µM | – | > 100 | – | > 100 µM
8 | CCCc1nc(NC#N)nc(C(=O)NC23CC4CC(CC(C4)C2)C3)c1C | – | > 100 | – | > 100 | – | > 100 | – | > 100 | – | > 100 | – | > 100 | – | > 100 | – | > 100 µM | – | > 100 | – | > 100 µM
9 | CSc1nc(C)c(Br)c(=O)n1C1OC(COC(C)=O)C(OC(C)=O)C(OC(C)=O)C1OC(C)=O (stereo not drawn) | – | > 100 | – | > 100 | 29.4 µM and 75.4 µM | > 100 | – | > 100 | > 100 µM and 35.4 µM | > 100 | – | > 100 | – | > 100 | > 100 µM and 19.2 µM | > 100 µM and 50.7 µM | – | > 100 | – | 49.2 µM and 40.7 µM
10 | CC1OC(n2c3ccccc3c3c4c(c5c6ccccc6[nH]c5c32)C(=O)N(CCN2CCOCC2)C4=O)CC(O)C1O (stereo not drawn) | 1.2 | 9.93 | 5.36 | 12.9 | 5.13 µM | 13.4 | 1.75 | 7.47 | 1.51 µM | 6.74 | 1.07 | 8.78 | 1.92 | 9.91 | 1.59 µM | 6.29 µM | 1.22 | 7.81 | 2.82 | 10.6 µM
11 | COc1ccccc1C(N)c1ccccc1 (stereo not drawn) | – | > 100 | – | > 100 | – | > 100 | – | > 100 | – | > 100 | – | > 100 | – | > 100 | – | > 100 µM | – | > 100 | – | > 100 µM
12 | CC1(C)N=C(N)N=C(N)N1c1cccc(CCCCOc2ccccc2)c1 | 0.0629 | 36.3 | < 0.0335 | > 100 | 1.8 µM | > 81.3 | 0.14 | 46.1 | 3.85 µM | > 100 | 0.0164 | > 100 | < 0.01 | 15.7 | 0.423 µM | 5.29 µM | 0.0222 | 14.4 | 0.147 | > 100 µM
